Measured values published in PubChem BioAssay (NCI).
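GI50 marks 50% less growth. TGI: total growth inhibition.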

Tests used:
Assay in all cases: NCI anticancer screen, dose series, 384-well format
SK-MEL-28 melanoma = system: SK-MEL-28 melanoma
HCT-15 colon = system: HCT-15 colon
SK-OV-3 ovarian = system: SK-OV-3 ovarian
UACC-62 melanoma = system: UACC-62 melanoma
SNB-19 CNS = system: SNB-19 CNS
EKVX NSCLC = system: EKVX NSCLC
MDA-MB-231 breast = system: MDA-MB-231 breast
SNB-75 CNS = system: SNB-75 CNS
TK-10 renal = system: TK-10 renal
RXF 393 renal = system: RXF 393 renal
OVCAR-3 ovarian = system: OVCAR-3 ovarian
NCI-H522 lung = system: NCI-H522 lung
HOP-62 NSCLC = system: HOP-62 NSCLC
OVCAR-8 ovarian = system: OVCAR-8 ovarian
SF-295 CNS = system: SF-295 CNS
MOLT-4 leukemia = system: MOLT-4 leukemia
A498 renal = system: A498 renal
K-562 leukemia = system: K-562 leukemia
HS 578T breast = system: HS 578T breast
DU-145 prostate = system: DU-145 prostate
MALME-3M melanoma = system: MALME-3M melanoma
HT29 colon = system: HT29 colon
HOP-92 NSCLC = system: HOP-92 NSCLC
MDA-MB-468 breast = system: MDA-MB-468 breast
MDA-MB-435 melanoma = system: MDA-MB-435 melanoma
T-47D breast = system: T-47D breast
ACHN renal = system: ACHN renal
SK-MEL-2 melanoma = system: SK-MEL-2 melanoma
IGROV1 ovarian = system: IGROV1 ovarian
NCI-H322M lung = system: NCI-H322M lung
SW-620 colon = system: SW-620 colon
NCI-H23 lung = system: NCI-H23 lung
CCRF-CEM leukemia = system: CCRF-CEM leukemia
LOX IMVI melanoma = system: LOX IMVI melanoma
OVCAR-5 ovarian = system: OVCAR-5 ovarian
UO-31 renal = system: UO-31 renal
HL-60(TB) leukemia = system: HL-60(TB) leukemia
UACC-257 melanoma = system: UACC-257 melanoma
KM12 colon = system: KM12 colon
SF-539 CNS = system: SF-539 CNS
M14 melanoma = system: M14 melanoma
MCF7 breast = system: MCF7 breast
OVCAR-4 ovarian = system: OVCAR-4 ovarian
HCT-116 colon = system: HCT-116 colon
CAKI-1 renal = system: CAKI-1 renal
SN12C renal = system: SN12C renal
A549 NSCLC = system: A549 NSCLC
RPMI-8226 leukemia = system: RPMI-8226 leukemia
PC-3 prostate = system: PC-3 prostate
NCI-H226 lung = system: NCI-H226 lung
BT-549 breast = system: BT-549 breast
NCI/ADR-RES ovarian = system: NCI/ADR-RES ovarian
786-0 renal = system: 786-0 renal
U251 glioblastoma = system: U251 glioblastoma
SF-268 CNS = system: SF-268 CNS

## O=C1c2c(O)ccc(O)c2C(=O)c2c(NCCNCCO)ccc(NCCNCCO)c21
SK-MEL-28 melanoma
  GI50: 116 nM
  TGI: 1370 nM
HCT-15 colon
  GI50: < 10 nM
  TGI: 173 nM
SK-OV-3 ovarian
  GI50: 17.7 nM
  TGI: 661 nM
UACC-62 melanoma
  GI50: < 10 nM
  TGI: 148 nM
SNB-19 CNS
  GI50: 10.5 nM
  TGI: 1120 nM
EKVX NSCLC
  GI50: 589 nM
  TGI: 3540 nM
MDA-MB-231 breast
  GI50: 18.7 nM
  TGI: 97.9 nM
SNB-75 CNS
  GI50: 22.9 nM
  TGI: 130 nM
TK-10 renal
  GI50: 121 nM
  TGI: 358 nM
RXF 393 renal
  GI50: 61 nM
  TGI: 210 nM
OVCAR-3 ovarian
  GI50: 186 nM
  TGI: 1160 nM
NCI-H522 lung
  GI50: 14.6 nM
  TGI: 58 nM
HOP-62 NSCLC
  GI50: < 10 nM
  TGI: 16 nM
OVCAR-8 ovarian
  GI50: < 10 nM
  TGI: 152 nM
SF-295 CNS
  GI50: 10.6 nM
  TGI: 44.7 nM
MOLT-4 leukemia
  GI50: < 10 nM
  TGI: < 10 nM
A498 renal
  GI50: 11.4 nM
  TGI: 217 nM
K-562 leukemia
  GI50: 48.1 nM
  TGI: 240 nM
HS 578T breast
  GI50: < 10 nM
  TGI: 181 nM
DU-145 prostate
  GI50: 19.6 nM
  TGI: 650 nM
MALME-3M melanoma
  GI50: 61.1 nM
  TGI: 388 nM
HT29 colon
  GI50: 34.4 nM
  TGI: 187 nM
HOP-92 NSCLC
  GI50: 24.8 nM
  TGI: 1190 nM
MDA-MB-468 breast
  GI50: 16.8 nM
  TGI: 59.8 nM
MDA-MB-435 melanoma
  GI50: 125 nM
  TGI: 1100 nM
T-47D breast
  GI50: 29.8 nM
  TGI: 1420 nM
ACHN renal
  GI50: 33.3 nM
  TGI: 251 nM
SK-MEL-2 melanoma
  GI50: 83.9 nM
  TGI: 189 nM
IGROV1 ovarian
  GI50: 185 nM
  TGI: 5370 nM
NCI-H322M lung
  GI50: 313 nM
  TGI: 1760 nM
SW-620 colon
  GI50: < 10 nM
  TGI: 507 nM
NCI-H23 lung
  GI50: 12.9 nM
  TGI: 102 nM
CCRF-CEM leukemia
  GI50: < 10 nM
  TGI: < 10 nM
LOX IMVI melanoma
  GI50: 13.8 nM
  TGI: 155 nM
OVCAR-5 ovarian
  GI50: 24.3 nM
  TGI: 284 nM
UO-31 renal
  GI50: 195 nM
  TGI: 1650 nM
HL-60(TB) leukemia
  GI50: < 10 nM
  TGI: < 10 nM
UACC-257 melanoma
  GI50: 1100 nM
  TGI: 2370 nM
KM12 colon
  GI50: 44.7 nM
  TGI: 284 nM
SF-539 CNS
  GI50: < 10 nM
  TGI: 124 nM
M14 melanoma
  GI50: 17.7 nM
  TGI: 334 nM
MCF7 breast
  GI50: < 10 nM
  TGI: 1180 nM
OVCAR-4 ovarian
  GI50: 171 nM
  TGI: 660 nM
HCT-116 colon
  GI50: < 10 nM
  TGI: 242 nM
CAKI-1 renal
  GI50: 13.3 nM
  TGI: 642 nM
SN12C renal
  GI50: < 10 nM
  TGI: 55.5 nM
A549 NSCLC
  GI50: < 10 nM
  TGI: 181 nM
RPMI-8226 leukemia
  GI50: < 10 nM
  TGI: 37.1 nM
PC-3 prostate
  GI50: 135 nM
  TGI: 545 nM
NCI-H226 lung
  GI50: 13.4 nM
  TGI: 163 nM
BT-549 breast
  GI50: 15.5 nM
  TGI: 195 nM
NCI/ADR-RES ovarian
  GI50: 4580 nM
  TGI: > 100000 nM
786-0 renal
  GI50: 10.3 nM
  TGI: 246 nM
U251 glioblastoma
  GI50: < 10 nM
  TGI: 114 nM
SF-268 CNS
  GI50: < 10 nM
  TGI: 154 nM
